Assay results published in patent publication US7868043B2, “Mesophasic forms of (3S)-aminomethyl-5-methyl-hexanoic acid prodrugs and methods of use” (Xenoport, Inc., priority 2008, dated 2011).

Assay: Intracolonic bioavailability in monkeys
Assay type: in vivo, Cynomologous monkeys
Settings: monkey, whole blood; bioavailability of pregabalin (F %, (SD)) after intracolonic administration, 10 mg-eq pregabalin/kg, suspension, 4 male monkeys, blood LC-MS/MS; salts before crystallization; read-out: Intracolonic Bioavailability Fic (%)
Experimental: Male Cynomologous monkeys weighing about 2.3 kg were used in the studies. Monkeys were fasted overnight prior to the study until 4 hours after dosing. Water was provided ad libitum.
Calcium (3S)-{[(1R)-isobutanoyloxyethoxy]carbonylaminomethyl}-5-methyl-hexanoate (5), calcium (3S)-{[(1S)-isobutanoyloxyisobutoxy]carbonylaminomethyl}-5-methyl-hexanoate (6), or calcium (3S)-{[(1R)-benzoyloxyethoxy]carbonylaminomethyl}-5-methyl-hexanoate (7) (obtained as described in Examples 4, 8, and 12, respectively, and before crystallization according to Examples 13, 14, and 15, respectively) were prepared as a suspension (21.4 mg/mL) in 0.5% methyl cellulose/0.1% Tween-80 in NaH2PO4 pH 7.02.
Calcium (3S)-{[(1R)-isobutanoyloxyethoxy]carbonylaminomethyl}-5-methyl-hexanoate (5), calcium (3S)-{[(1S)-isobutanoyloxyisobutoxy]carbonylaminomethyl}-5-methyl-hexanoate (6), or calcium (3S)-{[(1R)-benzoyloxyethoxy]carbonylaminomethyl}-5-methyl-hexanoate (7) (1 mL/kg; 10 mg-eq pregabalin/kg) were administered intracolonically to 4 monkeys. […]
Blood samples were analyzed by a sensitive and specific LC-MS/MS method for simultaneous determination of (3S)-{[(1R)-isobutanoyloxyethoxy]carbonylaminomethyl}-5-methyl-hexanoate, (3S)-{[(1S)-isobutanoyloxyisobutoxy]carbonylaminomethyl}-5-methyl-hexanoate, or (3S)-{[(1R)-benzoyloxyethoxy]carbonylaminomethyl}-5-methyl-hexanoate; and pregabalin. […]

## CC(C)C[C@H](CN)CC(=O)O [Pregabalin, (3S)-aminomethyl-5-methyl-hexanoic acid]
  bioavailability: 4%
